In PubChem BioAssay AID1963440 (Molecular Pharmacology Branch, DTP, NCI, 2024):

System: NCI-H1417 complex spheroids, growth % test/control
Assay: Anticancer human tumor NCI-H1417 cell line growth inhibition [Asc];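 further: spheroids exposed to compounds for 7 days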;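 on viability, T/C: 100% = DMSO vehicle control wells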
Settings: for IC50: curve of first compound; for viability, T/C: stronger effect = lower value
Experimental: Multicellular complex tumor spheroid response to apoptosis pathway targeting inhibitors Alrizomadlin, Pelcitoclax, and Dasminapant in combination with a variety of drugs and investigational agents in selected tumor cell lines
The MDM2 inhibitor alrizomadlin, the Bcl-2/Bcl-xL inhibitor pelcitoclax, and the IAPs inhibitor dasminapant were evaluated both individually and in combination with standard of care and investigational anticancer small molecules within a complex spheroid model of solid tumors. . Complex spheroids include a stromal component modeled by human endothelial cells (HUVEC) and fibroblasts modeled by human mesenchymal stem cells (MSCs). The concentration ranges selected for each drug and investigational agent were based upon clinically achievable concentrations if the clinical Cmax of the agent was known.
Compounds. The drugs and investigational agents: alrizomadlin (APG-115; NSC831270), pelcitoclax (APG-1252; NSC835773), dasminapant (APG-1387;NSC834197), TAK-243 (NSC785004), copanlisib (NSC809693), olaparib (NSC753686), talazoparib (NSC767125), cobimetinib (NSC 768068), eltanexor (KPT-8602, NSC 794443), abemaciclib (NSC 768073), sotorasib (NSC818433), adagrasib (NSC 831453), MRTX-1133 (NSC 836407), Iadademestat (ORY1001, NSC 806812), and RMC-4630 (NSC839698), were obtained from the NCI Developmental Therapeutics Program Chemical Repository. The FDA-approved anticancer drug set is available from the Developmental Therapeutics Program at https://dtp.cancer.gov/organization/dscb/obtaining/available plates.htm. […] The stock solutions were prepared in dimethyl sulfoxide (DMSO, Sigma-Aldrich, St. Louis, MO, cat. D2650) at 800-fold the tested concentration and stored at -70 degrees C prior to their use. All drugs and investigational agents were tested over a range starting from a high concentration at or near the clinical Cmax and decreasing in half-log increments. If the clinical Cmax for an agent had not been determined, the highest concentration tested was 10 microM.
The patient-derived cancer (PDC) cell lines include five colon adenocarcinomas: 186277-243-T-J2-PDC, 616215-338-R-J1-PDC, 439559-082-T-J2-PDC, 463943-066-T-J2-PDC, and 519858-162-T-J1-PDC; three pancreatic carcinomas: 323965-272-R-J2-PDC, 521955-158-R6-J3-PDC, and 521955-158-R2-J5-PDC; two uterine sarcomas: 327498-152-R-J2-PDC and 993429-296-R-J1-PDC; two rhabdomyosarcomas: 755483-174-R-J1-PDC and 772245-204-R-J1-PDC; two soft tissue sarcomas: 126254-015-R-J1-PDC and 494315-158-R-J1-PDC; two malignant fibrous histiocytomas: 317291-083-R-J1-PDC and 596521-263-R-J1-PDC; two breast carcinomas: 171881-019-R-J1-PDC and 885512-296-R-J2-PDC; and one ovarian carcinoma: 6556581-035-R-J-PDC were obtained from the NCI PDMR, (https://pdmr.cancer.gov). The established cell lines HSSY-2 synovial sarcoma (RRID:CVCL 8719), SYO-1 synovial sarcoma (RRID:CVCL_7146), MPNST malignant peripheral neural sheath tumor were obtained from the Sloan Kettering Institute. The following established cell lines were purchased from the American Type Culture Collection (ATCC, Manassas, VA), Sor the received from the NCI repository:, PANC-1 pancreatic carcinoma (CRL-1469, RRID:CVCL_0480), OVCAR-5 ovarian carcinoma (RRID:CVCL_1628), OVCAR-8 ovarian carcinoma (RRID:CVCL_1629), , MCF-7 breast carcinoma (CRL-12584, RRID:CVCL_0031), MDA-MB-231 breast carcinoma (CRL-12532, RRID:CVCL_0062), NCI-H1876 small cell lung carcinoma (CRL-5902, RRID:CVCL_1503), NCI-H510A small cell lung carcinoma (HTB-184, RRID:CVCL_1565), NCI-H1417 (CRL-5869, RRID:CVCL_1469), and NCI-H196 small cell lung carcinoma (CRL-5823, RRID:CVCL_1509). Dr. Peter Houghton (Greehey Children's Cancer Research Institute, University of Texas Health Science Center, San Antonio, TX) provided Rh-18 rhabdomyosarcoma (RRID:CVCL_1659). Pooled donor human umbilical vein endothelial cells (HUVEC, Lonza, cat. CC-2519) and human mesenchymal stem cells (hMSC, Lonza, cat. PT-2501) were purchased from Lonza (Walkersville, MD).
Cell Culture. […]

[1] = second compound 0.03 µM, first compound 0.00316 µM
[2] = second compound 0.03 µM, first compound 0.01 µM
[3] = second compound 0.03 µM, first compound 0.0316 µM
[4] = second compound 0.03 µM, first compound 0.1 µM
[5] = second compound 0.0949 µM, first compound 0.00316 µM
[6] = second compound 0.0949 µM, first compound 0.01 µM
[7] = second compound 0.0949 µM, first compound 0.0316 µM
[8] = second compound 0.0949 µM, first compound 0.1 µM
[9] = second compound 0.3 µM, first compound 0.00316 µM
[10] = second compound 0.3 µM, first compound 0.01 µM
[11] = second compound 0.3 µM, first compound 0.0316 µM
[12] = second compound 0.3 µM, first compound 0.1 µM
[13] = second compound 0.949 µM, first compound 0.00316 µM
[14] = second compound 0.949 µM, first compound 0.01 µM
[15] = second compound 0.949 µM, first compound 0.0316 µM
[16] = second compound 0.949 µM, first compound 0.1 µM
[17] = second compound 3 µM, first compound 0.00316 µM
[18] = second compound 3 µM, first compound 0.01 µM
[19] = second compound 3 µM, first compound 0.0316 µM
[20] = second compound 3 µM, first compound 0.1 µM
[21] = second compound 0.03 µM, first compound 0.316 µM
[22] = second compound 0.03 µM, first compound 1 µM
[23] = second compound 0.0949 µM, first compound 0.316 µM
[24] = second compound 0.0949 µM, first compound 1 µM
[25] = second compound 0.3 µM, first compound 0.316 µM
[26] = second compound 0.3 µM, first compound 1 µM
[27] = second compound 0.949 µM, first compound 0.316 µM
[28] = second compound 0.949 µM, first compound 1 µM
[29] = second compound 3 µM, first compound 0.316 µM
[30] = second compound 3 µM, first compound 1 µM

`Cn1ncnc1[C@H]1c2n[nH]c(=O)c3cc(F)cc(c23)N[C@@H]1c1ccc(F)cc1` + CCN1C(C(=O)NC23CCC(C(=O)O)(CC2)CC3)C(c2cccc(Cl)c2F)C2(C(=O)Nc3cc(Cl)ccc32)C12CCCCC2 gave an IC50 (second compound 0.03 µM) of 36.5 nM, an IC50 (second compound 0.0949 µM) of 13.9 nM and an IC50 (second compound 0.3 µM) of 9.66 nM. It also gave an IC50 (second compound 0.949 µM) of 12.9 nM, an IC50 (second compound 3 µM) of 10 nM and a viability, T/C (second compound 0.03 µM, first compound 0.000316 µM) of 99.3%. The viability, T/C (second compound 0.03 µM, first compound 0.001 µM) was 94%, the viability, T/C [1] was 87.5% and the viability, T/C [2] was 66%. For the same compound, the viability, T/C [3] was 52.6%, the viability, T/C [4] was 42% and the viability, T/C (second compound 0.0949 µM, first compound 0.000316 µM) was 91.8%. It also gave a viability, T/C (second compound 0.0949 µM, first compound 0.001 µM) of 91.7%, a viability, T/C [5] of 90% and a viability, T/C [6] of 52.3%. For the same compound, the viability, T/C [7] was 49.9%, the viability, T/C [8] was 38.1% and the viability, T/C (second compound 0.3 µM, first compound 0.000316 µM) was 94.5%. The viability, T/C (second compound 0.3 µM, first compound 0.001 µM) was 90.4%, the viability, T/C [9] was 79.2% and the viability, T/C [10] was 48.5%. The viability, T/C [11] was 43.6%, the viability, T/C [12] was 39.9% and the viability, T/C (second compound 0.949 µM, first compound 0.000316 µM) was 83.6%. It also gave a viability, T/C (second compound 0.949 µM, first compound 0.001 µM) of 87.8%, a viability, T/C [13] of 75.8% and a viability, T/C [14] of 55.1%. It also gave a viability, T/C [15] of 34.4%, a viability, T/C [16] of 34.8% and a viability, T/C (second compound 3 µM, first compound 0.000316 µM) of 80%. The viability, T/C (second compound 3 µM, first compound 0.001 µM) was 80.8%, the viability, T/C [17] was 76.3% and the viability, T/C [18] was 49.6%. It also gave a viability, T/C [19] of 39.6% and a viability, T/C [20] of 34.5%.

For `O=C(c1cc(Cc2n[nH]c(=O)c3ccccc23)ccc1F)N1CCN(C(=O)C2CC2)CC1` + CCN1C(C(=O)NC23CCC(C(=O)O)(CC2)CC3)C(c2cccc(Cl)c2F)C2(C(=O)Nc3cc(Cl)ccc32)C12CCCCC2, the IC50 (second compound 0.03 µM) was 2860 nM, the IC50 (second compound 0.0949 µM) was 3970 nM and the IC50 (second compound 0.3 µM) was 2690 nM. For the same compound, the IC50 (second compound 0.949 µM) was 2960 nM, the IC50 (second compound 3 µM) was 3210 nM and the viability, T/C [3] was 98.2%. The viability, T/C [4] was 96.3%, the viability, T/C [21] was 107% and the viability, T/C [22] was 82.3%. For the same compound, the viability, T/C (second compound 0.03 µM, first compound 3.16 µM) was 48%, the viability, T/C (second compound 0.03 µM, first compound 10 µM) was 33.6% and the viability, T/C [7] was 101%. It also gave a viability, T/C [8] of 110%, a viability, T/C [23] of 88.7% and a viability, T/C [24] of 84.8%. It also gave a viability, T/C (second compound 0.0949 µM, first compound 3.16 µM) of 53.6%, a viability, T/C (second compound 0.0949 µM, first compound 10 µM) of 29.9% and a viability, T/C [11] of 101%. For the same compound, the viability, T/C [12] was 103%, the viability, T/C [25] was 98% and the viability, T/C [26] was 76.8%. For the same compound, the viability, T/C (second compound 0.3 µM, first compound 3.16 µM) was 46.1%, the viability, T/C (second compound 0.3 µM, first compound 10 µM) was 31.2% and the viability, T/C [15] was 95.3%. It also gave a viability, T/C [16] of 105%, a viability, T/C [27] of 82.9% and a viability, T/C [28] of 76.2%. The viability, T/C (second compound 0.949 µM, first compound 3.16 µM) was 47.3%, the viability, T/C (second compound 0.949 µM, first compound 10 µM) was 29.8% and the viability, T/C [19] was 94%. The viability, T/C [20] was 90.1%, the viability, T/C [29] was 95.9% and the viability, T/C [30] was 74.8%. It also gave a viability, T/C (second compound 3 µM, first compound 3.16 µM) of 51.5% and a viability, T/C (second compound 3 µM, first compound 10 µM) of 28.3%.

With `O=C(c1ccc(F)c(F)c1Nc1ccc(I)cc1F)N1CC(O)([C@@H]2CCCCN2)C1` + CCN1C(C(=O)NC23CCC(C(=O)O)(CC2)CC3)C(c2cccc(Cl)c2F)C2(C(=O)Nc3cc(Cl)ccc32)C12CCCCC2 the IC50 (second compound 0.03 µM) was > 1000 nM, the IC50 (second compound 0.0949 µM) was > 1000 nM and the IC50 (second compound 0.3 µM) was > 1000 nM. The IC50 (second compound 0.949 µM) was > 1000 nM, the IC50 (second compound 3 µM) was > 1000 nM and the viability, T/C [1] was 85.9%. The viability, T/C [2] was 91.6%, the viability, T/C [3] was 88.9% and the viability, T/C [4] was 85.9%. The viability, T/C [21] was 88.2%, the viability, T/C [22] was 81.2% and the viability, T/C [5] was 101%. For the same compound, the viability, T/C [6] was 89%, the viability, T/C [7] was 97.5% and the viability, T/C [8] was 84.1%. The viability, T/C [23] was 88.8%, the viability, T/C [24] was 88.8% and the viability, T/C [9] was 94.6%. For the same compound, the viability, T/C [10] was 76.9%, the viability, T/C [11] was 91.6% and the viability, T/C [12] was 89.6%. It also gave a viability, T/C [25] of 85.4%, a viability, T/C [26] of 89.5% and a viability, T/C [13] of 79.4%. It also gave a viability, T/C [14] of 87.8%, a viability, T/C [15] of 85% and a viability, T/C [16] of 87.5%. The viability, T/C [27] was 78.8%, the viability, T/C [28] was 87.8% and the viability, T/C [17] was 86.7%. The viability, T/C [18] was 87.5%, the viability, T/C [19] was 78.5% and the viability, T/C [20] was 89%. The viability, T/C [29] was 90.7% and the viability, T/C [30] was 77%.
